Columns and labels:
Assay type in all cases: cell-based
[1] = system: IRS1; experiment: Insulin signaling in cells stimulated with insulin in the presence or absence of TNF-α
Description: (§1) To explore the possibility that Pirfenidone could be used to treat NASH, the effects of pirfenidone on cells stimulated with Insulin in the presence or absence of TNF-α were examined.
(§2) When cells were treated with Pirfenidone, TNF-α mediated Insulin resistance was ameliorated. […] More specifically, Pirfenidone decreased ERK activation by 7-fold, p38 MAPK by 2-fold and RAF activation by 2-fold (P<0.01 for all observations). In addition, Pirfenidone decreased the TNF-α mediated phosphorylation of the transcription activation factor CREB by 2-fold (P<0.01). […] In addition, Pirfenidone increased insulin-induced phosphorylation of IRS1. […] The results are depicted in FIGS. 3 and 4. FIG. 3 depicts inhibition of MAPK by pirfenidone. FIG. 4 depicts enhancement of insulin signaling by pirfenidone.

[2] = system: ATF2; experiment: Phosphorylation of JNK-phosphorylated transcription factor ATF2; conditions: FIG. 12
Description: (§3) While phosphorylation of CREB is diminished due to decreased activity of p38 in the presence of pirfenidone, phosphorylation of the JNK-phosphorylated transcription factor ATF2 is potentiated in the presence of pirfenidone. FIG. 12 depicts pirfenidone potentiation of ATF2. Thus, pirfenidone potentiates TNF-induced activation of the JNK kinase pathway.

[3] = system: AKT; experiment: TNF-induced activation of AKT; conditions: FIG. 10
Description: (§4) FIG. 5 depicts various downstream signaling events that are triggered by TNF binding to a TNF receptor. TNF-mediated activation of various serine-threonine kinases are differentially affected by pirfenidone. Therefore, activation of transcription factors downstream of a given kinase will be differentially affected by pirfenidone. FIG. 6 depicts pirfenidone inhibition of TNF-induced ERK activation. FIG. 7 depicts pirfenidone inhibition of TNF-induced p38 MAPK activation. FIG. 8 depicts pirfenidone inhibition of TNF-induced activation of the transcription factor CREB. FIG. 9 depicts pirfenidone inhibition of TNF-induced activation of RAF kinase. FIG. 10 depicts pirfenidone inhibition of TNF-induced activation of AKT. FIG. 11 depicts pirfenidone potentiation of TNF-induced JNK activation.

[4] = system: AP-1; experiment: AP-1 activation
[5] = system: JNK; experiment: TNF-induced JNK activation; conditions: FIG. 11
Description: as §4, §3

[6] = system: CREB; experiment: TNF-α mediated phosphorylation/activation of transcription factor CREB
Description: as §1, §2
(§5) FIG. 5 depicts various downstream signaling events that are triggered by TNF binding to a TNF receptor. TNF-mediated activation of various serine-threonine kinases are differentially affected by pirfenidone. Therefore, activation of transcription factors downstream of a given kinase will be differentially affected by pirfenidone. FIG. 6 depicts pirfenidone inhibition of TNF-induced ERK activation. FIG. 7 depicts pirfenidone inhibition of TNF-induced p38 MAPK activation. FIG. 8 depicts pirfenidone inhibition of TNF-induced activation of the transcription factor CREB. […]

[7] = system: ERK; experiment: Western blot, TNF-induced ERK activation in cells; conditions: TNF cascade, P<0.01
Description: as §1, §2, §5

[8] = system: p38 MAPK; experiment: Western blot, TNF-induced p38 MAPK activation in cells; conditions: TNF cascade, P<0.01
Description: as §1, §2, §5

[9] = system: RAF; experiment: Western blot, TNF-induced RAF kinase activation in cells; conditions: TNF cascade, P<0.01
Description: as §1, §2, §5

Cc1ccc(=O)n(-c2ccccc2)c1 [Pirfenidone, 5-methyl-1-phenyl-2-(1H)-pyridone]
effect on TNF-α mediated insulin resistance ([1]; cells treated with TNF-α): ameliorated
effect on TNF-α-mediated inhibition of insulin-induced IRS1 tyrosine phosphorylation ([1]; insulin plus TNF-α): blocks
effect on insulin-induced phosphorylation of IRS1 ([1]; insulin stimulation): increased
effect on phosphorylation of ATF2 [2]: potentiated
effect on TNF-induced activation of AKT [3]: inhibition
effect on AP-1 activation [4]: potentiates
effect on TNF-induced JNK activation [5]: potentiation
decrease of TNF-α mediated phosphorylation of CREB ([6]; P<0.01): 2 fold
upper limit of inhibition of CREB activation ([6]; at maximal pirfenidone concentrations): ≤ 75%
decrease of ERK activation [7]: 7 fold
decrease of p38 MAPK activation [8]: 2 fold
decrease of RAF activation [9]: 2 fold
